Experimental data as given in patent publication US9669050B2, “Composition for prevention or treatment of hyperlipidemia, fatty liver or obesity” (BENEBIOSIS CO., LTD., priority 2008, dated 2017).
“Also recorded” adds a separate entry of the source.

Tests used:
[1] = system: high-fat diet C56BL/6 male mice; test: Serum lipid and leptin levels in high-fat diet mice; assay type: in vivo, mouse; conditions: for Leptin / HDL-cholesterol / HDL/TC / LDL/TC / Total cholesterol (TC) / Triglyceride / LDL-cholesterol: peritoneal injection every day, 50 days; for Leptin: ELISA; for HDL-cholesterol / HDL/TC / LDL/TC / Total cholesterol (TC) / Triglyceride / LDL-cholesterol: serum; for LDL-cholesterol: calculated by Equation 1
Experimental: (§1) Blood was taken from the liver of the C56BL/6 male mice. The blood was coagulated, centrifuged for 15 minutes at 13,000 rpm, and kept at −20° C. until serum analysis. High-density lipoprotein (HDL)-cholesterol level was measured using an HDL kit (YD Diagnostics, Korea). Triglyceride (TG) was analyzed using a TG kit (YD Diagnostics) based on enzymologic method. Total cholesterol was analyzed using a cholesterol E kit (YD Diagnostics). Low-density lipoprotein (LDL)-cholesterol level was calculated from triglyceride level, total cholesterol level and HDL-cholesterol level according to Equation 1: LDL-cholesterol=total cholesterol−{[…]} Equation 1
Leptin level was measured using a mouse leptin ELISA kit (Millipore) and a rat leptin ELISA kit (Millipore).

high-fat diet SD rats [2] = test: Body weight change, food and water intake of high-fat diet rats; assay type: in vivo, rat; conditions: orally administered every day, 7 weeks
Experimental: 4 week-old Sprague-Dawley (SD) rats were purchased from Dooyeul Biotech (Korea). Water was allowed freely and commercially available pellet feed (Dooyeul Biotech, Korea) was given for a week. The rats were grouped into four groups (six per each group) as follows: ND, normal diet group (normal group); HD, high-fat (60% fat) diet [purchased from Research Diets (New Brunswick, USA)] group (control group); and HD+SL (1 mg/kg) and HD+SL (5 mg/kg), high-fat diet groups treated with SL (Sigma). 3′-SL or deionized water (DW) was orally administered every day. The mice were kept in cages for 7 weeks and sacrificed after fasting for 12 hours. Food intake and body weight change were measured every 5 days.

[3] = system: high-fat diet C56BL/6 male mice; test: Body weight change and food intake of high-fat diet mice; assay type: in vivo, mouse; conditions: for Weight increase / Final weight: peritoneal injection every day; for Comparison of body weight increase, SL vs. ND: compared to normal diet mice
Experimental: 4 week-old C56BL/6 male mice were purchased from Dooyeul Biotech (Korea). Water was allowed freely and commercially available pellet feed (Dooyeul Biotech, Korea) was given for a week. The mice were grouped into six groups (six per each group) as follows: ND, normal diet group (normal group); HD, high-fat (60% fat) diet [purchased from Research Diets (New Brunswick, USA)] group (control group); and HD+SL (0.1 mg/kg), HD+SL (0.5 mg/kg), HD+SL (1.0 mg/kg) and HD+SL (5.0 mg/kg), high-fat diet groups treated with sialyllactose (SL, Sigma). Sialyllactose or PBS was administered every day by peritoneal injection. The mice were kept in cages for 50 days and sacrificed after fasting for 12 hours. Food intake and body weight change were measured every 7 days. 3′-Sialyllactose (3′-N-acetylneuraminyl-D-lactose, 3′-sialyl-D-lactose or α-NeuNAc-(2→3)-β-D-Gal-(1→4)-D-Glc) and 6′-sialyllactose (6′-N-acetylneuraminyl-lactose, 6′-sialyl-D-lactose or α-NeuNAc-(2→6)-β-D-Gal-(1→4)-D-Glc) were purchased from Sigma-Aldrich.

high-fat diet SD rats [4] = test: Serum lipid levels in high-fat diet rats; assay type: in vivo, rat; conditions: HD + SL 1 mg/kg
Experimental: as §1
Blood was taken from the liver of the SD rats, and lipid levels were analyzed in the same manner as the experiment with the C57BL/6 male mice.

[5] = system: high-fat diet C56BL/6 male mice; test: Improvement of fatty liver in high-fat diet mice (dissection, observation); assay type: in vivo, mouse; conditions: peritoneally administered, FIG. 4
Description: In order to investigate 3′-SL's effect of improving fatty liver, high-fat diet C56BL/6 male mice were dissected and the liver and other organs were observed.

high-fat diet SD rats [6] = test: Improvement of fatty liver in high-fat diet rats (dissection, observation); assay type: in vivo, rat; conditions: orally administered, FIGS. 8a and 8b
Description: In order to investigate 3′-SL's effect of improving fatty liver, high-fat diet SD rats were dissected and the liver and other organs were observed.

high-fat diet SD rats [7] = test: Subcutaneous, perirenal and retroperitoneal fat weight in high-fat diet rats; assay type: in vivo, rat; conditions: orally administered for 6 weeks, FIG. 7
Experimental: As described above, 4 week-old SD rats were treated with high-fat diet and 3′-SL for 6 weeks. Then, subcutaneous fat, perirenal fat and retroperitoneal fat were isolated from the rats and weighed.

[8] = high-fat diet + SL 5 mg/kg peritoneally injected, 50 days

CC(=O)N[C@H]1[C@H]([C@H](O)[C@H](O)CO)O[C@@](O[C@H]2[C@@H](O)[C@@H](CO)O[C@@H](O[C@H]3[C@H](O)[C@@H](O)C(O)O[C@@H]3CO)[C@@H]2O)(C(=O)O)C[C@@H]1O (stereo partly drawn) [3′-SL, α-NeuNAc-(2→3)-β-D-Gal-(1→4)-D-Glc]
Leptin ([1]; HD + SL 0.1 mg/kg): 66.59 ± 43.57 ng/mL
HDL-cholesterol ([1]; HD + SL 0.1 mg/kg): 53.27 ± 5.08 mg/dL
HDL/TC ([1]; HD + SL 0.1 mg/kg): 0.40 ± 0.04
LDL/TC ([1]; HD + SL 0.1 mg/kg): 0.43 ± 0.02
Total cholesterol (TC) ([1]; HD + SL 0.1 mg/kg): 135.05 ± 13.58 mg/dL
Triglyceride ([1]; HD + SL 0.1 mg/kg): 166.78 ± 6.60 mg/dL
LDL-cholesterol ([1]; HD + SL 0.1 mg/kg): 58.16 ± 3.74 mg/dL
Leptin ([1]; HD + SL 0.5 mg/kg): 38.73 ± 5.58 ng/mL
HDL-cholesterol ([1]; HD + SL 0.5 mg/kg): 55.74 ± 3.18 mg/dL
HDL/TC ([1]; HD + SL 0.5 mg/kg): 0.51 ± 0.02
LDL/TC ([1]; HD + SL 0.5 mg/kg): 0.45 ± 0.12
Total cholesterol (TC) ([1]; HD + SL 0.5 mg/kg): 108.25 ± 3.06 mg/dL
Triglyceride ([1]; HD + SL 0.5 mg/kg): 112.99 ± 8.16 mg/dL
LDL-cholesterol ([1]; HD + SL 0.5 mg/kg): 48.43 ± 13.91 mg/dL
Leptin ([1]; HD + SL 1.0 mg/kg): 19.29 ± 14.24 ng/mL
HDL-cholesterol ([1]; HD + SL 1.0 mg/kg): 49.29 ± 3.40 mg/dL
HDL/TC ([1]; HD + SL 1.0 mg/kg): 0.39 ± 0.01
LDL/TC ([1]; HD + SL 1.0 mg/kg): 0.37 ± 0.12
Total cholesterol (TC) ([1]; HD + SL 1.0 mg/kg): 126.30 ± 7.75 mg/dL
Triglyceride ([1]; HD + SL 1.0 mg/kg): 94.28 ± 5.66 mg/dL
LDL-cholesterol ([1]; HD + SL 1.0 mg/kg): 46.03 ± 13.79 mg/dL
Leptin ([1]; HD + SL 5.0 mg/kg): 6.64 ± 2.93 ng/mL
HDL-cholesterol ([1]; HD + SL 5.0 mg/kg): 48.97 ± 1.62 mg/dL
HDL/TC ([1]; HD + SL 5.0 mg/kg): 0.44 ± 0.05
LDL/TC ([1]; HD + SL 5.0 mg/kg): 0.27 ± 0.04
Total cholesterol (TC) ([1]; HD + SL 5.0 mg/kg): 112.97 ± 12.54 mg/dL
Triglyceride ([1]; HD + SL 5.0 mg/kg): 89.78 ± 4.31 mg/dL
LDL-cholesterol ([1]; HD + SL 5.0 mg/kg): 29.91 ± 2.69 mg/dL
Final weight (high-fat diet SD rats [2]; HD + SL 1.0 mg/kg): 454.17 ± 10.37 g
Weight increase (high-fat diet SD rats [2]; HD + SL 1.0 mg/kg): 4.05 ± 0.16 g/day
Final weight (high-fat diet SD rats [2]; HD + SL 5.0 mg/kg): 443.33 ± 19.56 g
Weight increase (high-fat diet SD rats [2]; HD + SL 5.0 mg/kg): 3.66 ± 0.32 g/day
Weight increase ([3]; HD + SL 0.1 mg/kg): 8.94 ± 0.43 g/50 day
Final weight ([3]; HD + SL 0.1 mg/kg, 50 days): 31.34 ± 1.15 g
Weight increase ([3]; HD + SL 0.5 mg/kg): 7.52 ± 0.74 g/50 day
Final weight ([3]; HD + SL 0.5 mg/kg, 50 days): 30.42 ± 0.51 g
Weight increase ([3]; HD + SL 1.0 mg/kg): 5.60 ± 0.77 g/50 day
Final weight ([3]; HD + SL 1.0 mg/kg, 50 days): 29.00 ± 0.82 g
Weight increase ([3]; HD + SL 5.0 mg/kg): 6.68 ± 0.28 g/50 day
Final weight ([3]; HD + SL 5.0 mg/kg, 50 days): 28.68 ± 0.95 g
Comparison of body weight increase, SL vs. ND [3, 8]: 51.5%
effect on serum lipid levels (in words) (high-fat diet SD rats [4]; compared to the control group): higher HDL-cholesterol level and lower LDL-cholesterol, total cholesterol and triglyceride levels as compared to the control group
HDL-cholesterol (high-fat diet SD rats [4]; oral, serum): 88.73 ± 1.32
HDL/total cholesterol (high-fat diet SD rats [4]; oral, serum): 0.52 ± 0.04
LDL/total cholesterol (high-fat diet SD rats [4]; oral, serum): 0.34 ± 0.03
Total cholesterol (high-fat diet SD rats [4]; oral, serum): 171.44 ± 12.8
Triglyceride (high-fat diet SD rats [4]; oral, serum): 149.00 ± 3.86
LDL-cholesterol (high-fat diet SD rats [4]; oral, serum, calculated by Equation 1): 57.91 ± 1.39
fatty liver, fat accumulation in liver and other organs (in words) [5]: fat accumulation was not observed in the liver or other organs
fatty liver, fat accumulation in liver and other organs (in words) (high-fat diet SD rats [6]): fat accumulation reduced markedly
subcutaneous, perirenal and retroperitoneal fat weight (in words) (high-fat diet SD rats [7]): decreased subcutaneous fat, perirenal fat and retroperitoneal fat in a dose-dependent manner

CC(=O)N[C@H]1[C@H]([C@H](O)[C@H](O)CO)O[C@@](OC[C@H]2O[C@@H](O[C@H]3[C@H](O)[C@@H](O)[C@H](O)O[C@@H]3CO)[C@H](O)[C@@H](O)[C@H]2O)(C(=O)O)C[C@@H]1O [6′-SL, α-NeuNAc-(2→6)-β-D-Gal-(1→4)-D-Glc]
Leptin ([1]; HD + SL 0.1 mg/kg): 11.50 ± 3.72 ng/mL
HDL-cholesterol ([1]; HD + SL 0.1 mg/kg): 70.71 ± 14.15 mg/dL
HDL/TC ([1]; HD + SL 0.1 mg/kg): 0.55 ± 0.08(*)
LDL/TC ([1]; HD + SL 0.1 mg/kg): 0.33 ± 0.07(*)
Total cholesterol (TC) ([1]; HD + SL 0.1 mg/kg): 126.68 ± 10.7 mg/dL
Triglyceride ([1]; HD + SL 0.1 mg/kg): 74.48 ± 3.77 mg/dL
LDL-cholesterol ([1]; HD + SL 0.1 mg/kg): 41.07 ± 6.34 mg/dL
Leptin ([1]; HD + SL 0.5 mg/kg): 6.71 ± 0.93 ng/mL
HDL-cholesterol ([1]; HD + SL 0.5 mg/kg): 76.33 ± 10.53 mg/dL
HDL/TC ([1]; HD + SL 0.5 mg/kg): 0.58 ± 0.05(*)
LDL/TC ([1]; HD + SL 0.5 mg/kg): 0.31 ± 0.05(*)
Total cholesterol (TC) ([1]; HD + SL 0.5 mg/kg): 130.54 ± 8.10 mg/dL
Triglyceride ([1]; HD + SL 0.5 mg/kg): 71.05 ± 5.88 mg/dL
LDL-cholesterol ([1]; HD + SL 0.5 mg/kg): 40.00 ± 4.25 mg/dL
Leptin ([1]; HD + SL 1.0 mg/kg): 5.15 ± 1.61 ng/mL
HDL-cholesterol ([1]; HD + SL 1.0 mg/kg): 57.44 ± 0.87 mg/dL
HDL/TC ([1]; HD + SL 1.0 mg/kg): 0.53 ± 0.03(*)
LDL/TC ([1]; HD + SL 1.0 mg/kg): 0.36 ± 0.02(*)
Total cholesterol (TC) ([1]; HD + SL 1.0 mg/kg): 109.14 ± 9.86 mg/dL
Triglyceride ([1]; HD + SL 1.0 mg/kg): 60.69 ± 7.69 mg/dL
LDL-cholesterol ([1]; HD + SL 1.0 mg/kg): 39.56 ± 8.53 mg/dL
Leptin ([1]; HD + SL 5.0 mg/kg): 6.47 ± 1.64 ng/mL
HDL-cholesterol ([1]; HD + SL 5.0 mg/kg): 62.73 ± 8.58 mg/dL
HDL/TC ([1]; HD + SL 5.0 mg/kg): 0.54 ± 0.05(*)
LDL/TC ([1]; HD + SL 5.0 mg/kg): 0.35 ± 0.10(*)
Total cholesterol (TC) ([1]; HD + SL 5.0 mg/kg): 115.36 ± 14.9 mg/dL
Triglyceride ([1]; HD + SL 5.0 mg/kg): 61.34 ± 3.84 mg/dL
LDL-cholesterol ([1]; HD + SL 5.0 mg/kg): 40.36 ± 2.69 mg/dL
effect on LDL-cholesterol, total cholesterol, triglyceride and leptin levels (in words) ([1]; high-fat diet mice, compared to the high-fat diet group): much better effect of reducing LDL-cholesterol, total cholesterol, triglyceride and leptin levels than 3′-SL
Weight increase ([3]; HD + SL 0.1 mg/kg): 7.82 ± 1.44(*) g/50 day
Final weight ([3]; HD + SL 0.1 mg/kg, 50 days): 26.82 ± 0.92 g
Weight increase ([3]; HD + SL 0.5 mg/kg): 7.68 ± 2.82(*) g/50 day
Final weight ([3]; HD + SL 0.5 mg/kg, 50 days): 25.74 ± 1.93 g
Weight increase ([3]; HD + SL 1.0 mg/kg): 7.99 ± 1.15(*) g/50 day
Final weight ([3]; HD + SL 1.0 mg/kg, 50 days): 25.62 ± 1.33 g
Weight increase ([3]; HD + SL 5.0 mg/kg): 6.88 ± 1.80(*) g/50 day
Final weight ([3]; HD + SL 5.0 mg/kg, 50 days): 25.92 ± 0.95 g
body weight decrease compared to normal diet mice [3, 8]: 4.7%
Comparison of body weight increase, SL vs. ND [3, 8]: −4.7%
effect on body weight increase (in words) ([3]; high-fat diet mice, peritoneal injection, 50 days): significant decrease in body weight increase; also recorded: more effective in body weight loss than 3′-SL; also recorded: less body weight increase than the normal diet mice
